Assay [1] addresses 5-hydroxytryptamine receptor 6 (Homo sapiens, UniProt P50406). The format is cell membranes, HeLa, Membrane. The note with it: for IC50: hela.
A short description of assay [2]: DRUGMATRIX: Tumor Necrosis Factor (TNF), Non-Selective radioligand binding (ligand: [125I] TNF-alpha). The format is cell membranes, Membrane. To be noted: u-937; Not Active = under 50% inhibition at 10 µM.
In a further assay the target is Glycine receptor (Rattus norvegicus, UniProt P22771+P24524+P07727+P20781). The format is cell membranes, Wistar, Spinal cord, Membrane. Note: in other assays of this panel Not Active means under 50% inhibition at 10 µM.
Assay [3] in a line: DRUGMATRIX: Leukotriene, BLT (LTB4) radioligand binding (ligand: [3H]LTB4). The format is cell membranes, Membrane. To be noted: u-937; Not Active = under 50% inhibition at 10 µM.
The target of assay [4] is T1, Nitric oxide synthase, inducible (Mus musculus, UniProt P29477).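 Note: inhibition of iNOS enzyme activity measured with L-arginine as substrate; in other assays of this panel Not Active means under 50% inhibition at 10 µM.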
T1 sequence (P29477 whole entry): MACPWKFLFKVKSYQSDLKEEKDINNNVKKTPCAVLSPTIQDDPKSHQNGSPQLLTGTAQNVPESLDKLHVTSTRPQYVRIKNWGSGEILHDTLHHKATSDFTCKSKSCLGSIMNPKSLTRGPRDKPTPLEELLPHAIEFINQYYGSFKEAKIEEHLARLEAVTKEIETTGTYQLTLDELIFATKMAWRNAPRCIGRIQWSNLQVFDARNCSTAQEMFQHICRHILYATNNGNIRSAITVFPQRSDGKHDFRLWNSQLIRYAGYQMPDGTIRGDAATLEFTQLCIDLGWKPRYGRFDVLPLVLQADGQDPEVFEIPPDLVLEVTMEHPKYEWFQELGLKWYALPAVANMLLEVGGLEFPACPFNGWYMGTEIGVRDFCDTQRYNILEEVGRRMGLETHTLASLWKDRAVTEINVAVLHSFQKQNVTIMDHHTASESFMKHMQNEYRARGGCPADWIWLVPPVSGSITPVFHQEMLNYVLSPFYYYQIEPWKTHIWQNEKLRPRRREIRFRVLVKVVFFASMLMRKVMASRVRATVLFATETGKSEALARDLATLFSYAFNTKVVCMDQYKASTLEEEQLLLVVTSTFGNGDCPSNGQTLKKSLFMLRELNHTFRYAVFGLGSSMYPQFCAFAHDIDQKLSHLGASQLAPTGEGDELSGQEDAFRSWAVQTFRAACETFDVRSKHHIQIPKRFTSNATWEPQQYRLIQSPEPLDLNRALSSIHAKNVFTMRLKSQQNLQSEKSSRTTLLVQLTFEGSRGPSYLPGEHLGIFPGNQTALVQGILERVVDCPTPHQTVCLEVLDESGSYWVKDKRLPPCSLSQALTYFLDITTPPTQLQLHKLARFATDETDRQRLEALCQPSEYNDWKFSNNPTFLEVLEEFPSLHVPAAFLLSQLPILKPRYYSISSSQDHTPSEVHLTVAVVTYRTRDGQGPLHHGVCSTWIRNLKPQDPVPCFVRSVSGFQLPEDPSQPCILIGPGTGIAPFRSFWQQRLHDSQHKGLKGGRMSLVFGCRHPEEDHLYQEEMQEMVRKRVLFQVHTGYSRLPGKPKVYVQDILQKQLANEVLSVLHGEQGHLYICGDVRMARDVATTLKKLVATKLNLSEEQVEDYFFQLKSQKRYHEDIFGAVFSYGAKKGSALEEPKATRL
Also noted: species or system Escherichia coli.

Another assay addresses T2, Progesterone receptor (Bos taurus, UniProt Q690N0).
T2 sequence (Q690N0 whole entry): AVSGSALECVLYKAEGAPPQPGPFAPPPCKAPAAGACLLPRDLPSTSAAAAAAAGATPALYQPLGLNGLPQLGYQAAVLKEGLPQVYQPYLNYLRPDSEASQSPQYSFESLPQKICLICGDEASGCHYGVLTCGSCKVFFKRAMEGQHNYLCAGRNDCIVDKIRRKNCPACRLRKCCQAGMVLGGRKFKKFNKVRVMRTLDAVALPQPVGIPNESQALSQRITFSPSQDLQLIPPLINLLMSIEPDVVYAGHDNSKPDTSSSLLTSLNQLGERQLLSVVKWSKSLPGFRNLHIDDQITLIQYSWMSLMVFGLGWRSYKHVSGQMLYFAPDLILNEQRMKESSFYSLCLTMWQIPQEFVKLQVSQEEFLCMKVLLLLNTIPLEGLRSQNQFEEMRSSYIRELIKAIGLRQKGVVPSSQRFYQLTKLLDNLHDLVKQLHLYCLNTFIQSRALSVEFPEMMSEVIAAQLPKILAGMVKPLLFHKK
In words: DRUGMATRIX: Progesterone radioligand binding (ligand: [3H] R-5020). Format: tissue-based, Uterus. The note with it: Not Active = under 50% inhibition at 10 µM.

In the next assay the target is T3, Neutrophil elastase (Homo sapiens, UniProt P08246).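 Note: inhibition of neutrophil elastase enzyme activity, measured with a p-nitroanilide-linked peptide substrate; in other assays of this panel Not Active means under 50% inhibition at 10 µM.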
T3 sequence (P08246 whole entry): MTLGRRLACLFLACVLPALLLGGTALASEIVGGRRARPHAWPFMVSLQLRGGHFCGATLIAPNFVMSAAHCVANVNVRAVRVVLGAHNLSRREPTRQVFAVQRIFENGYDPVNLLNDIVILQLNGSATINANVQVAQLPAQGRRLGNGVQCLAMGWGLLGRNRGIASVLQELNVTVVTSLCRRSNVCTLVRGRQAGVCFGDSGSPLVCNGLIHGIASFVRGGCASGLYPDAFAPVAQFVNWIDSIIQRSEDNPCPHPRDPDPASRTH
The format is tissue-based.

pIC50, pKi: −log10 of the molar value.

Chain of 5-hydroxytryptamine receptor 6 (P50406 whole entry): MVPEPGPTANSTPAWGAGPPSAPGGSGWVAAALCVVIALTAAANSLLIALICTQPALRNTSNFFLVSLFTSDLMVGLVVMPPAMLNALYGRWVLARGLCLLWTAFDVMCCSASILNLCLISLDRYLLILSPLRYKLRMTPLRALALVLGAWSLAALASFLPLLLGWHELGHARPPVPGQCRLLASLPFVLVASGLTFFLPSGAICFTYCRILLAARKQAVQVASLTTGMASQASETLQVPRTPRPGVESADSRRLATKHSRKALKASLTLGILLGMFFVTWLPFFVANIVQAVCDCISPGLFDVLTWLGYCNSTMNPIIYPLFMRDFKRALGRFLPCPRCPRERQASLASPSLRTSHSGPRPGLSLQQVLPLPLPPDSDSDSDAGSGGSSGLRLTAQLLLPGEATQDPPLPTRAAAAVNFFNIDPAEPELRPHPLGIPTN

Consider `CCN1CCN(c2cc3c(cc2F)c(=O)c(C(=O)O)cn3C2CC2)CC1` [ENROFLOXACIN], for which the IC50 entry (in assay [1]; in assay [2]; on Glycine receptor; in assay [3]; in assay [4]; at Progesterone receptor) was “Not Active” in each case. In addition, the IC50 entry on Neutrophil elastase is “Not Active”. Also, the Ki entry in assay [2] and in assay [3] was “Not Active” throughout.
On to `CNC[C@H](O)c1ccc(O)c(O)c1` [EPINEPHRINE], for which the IC50 result (in assay [1]; in assay [2]; against Glycine receptor; in assay [3]; in assay [4]; on Progesterone receptor) was “Not Active” each time. On Neutrophil elastase, the IC50 result was “Not Active”. For the same compound, the Ki entry in assay [2] and in assay [3] was “Not Active” each time.
In the case of `CC[C@H]1OC(=O)[C@H](C)[C@@H](O[C@H]2C[C@@](C)(OC)[C@@H](O)[C@H](C)O2)[C@H](C)[C@@H](O[C@@H]2O[C@H](C)C[C@H](N(C)C)[C@H]2O)[C@](C)(O)C[C@@H](C)C(=O)[C@H](C)[C@@H](O)[C@]1(C)O` [ERYTHROMYCIN], the IC50 result (in assay [1]; in assay [2]; against Glycine receptor; in assay [3]; in assay [4]; on Progesterone receptor) was “Not Active” each time. Besides, the IC50 result against Neutrophil elastase is “Not Active”. Further, the Ki result in assay [2] and in assay [3] was “Not Active” each time.
With `CC12CCC(CC1)C(C)(C)O2` [EUCALYPTOL], the IC50 entry (in assay [1]; in assay [2]; on Glycine receptor; in assay [3]; in assay [4]; on Progesterone receptor) was “Not Active” in each case. Further, at Neutrophil elastase, the IC50 entry was “Not Active”. In addition, the Ki entry in assay [2] and in assay [3] was “Not Active” throughout.
As to `NC(N)=Nc1nc(CSCCC(N)=NS(N)(=O)=O)cs1` [FAMOTIDINE], the IC50 result (in assay [1]; in assay [2]; on Glycine receptor; in assay [3]; in assay [4]; at Progesterone receptor) was “Not Active” in each case. Also, the IC50 entry against Neutrophil elastase is “Not Active”. Further, the Ki entry in assay [2] and in assay [3] was “Not Active” each time.
For `COC(=O)Nc1nc2ccc(Sc3ccccc3)cc2[nH]1` [FENBENDAZOLE], the IC50 entry (in assay [1]; in assay [2]; against Glycine receptor; in assay [3]; in assay [4]; at Progesterone receptor) was “Not Active” each time. The IC50 result at Neutrophil elastase is on record as “Not Active”. In addition, the Ki entry in assay [2] and in assay [3] was “Not Active” each time.
Consider `COc1cc(/C=C/C(=O)O)ccc1O` [FERULATE], for which the IC50 entry (in assay [1]; in assay [2]; against Glycine receptor; in assay [3]; in assay [4]; at Progesterone receptor) was “Not Active” throughout. Also, the IC50 result against Neutrophil elastase is “Not Active”. For the same compound, the Ki result in assay [2] and in assay [3] was “Not Active” each time.
For `Nc1nc(F)nc2c1ncn2[C@@H]1O[C@H](CO)[C@@H](O)[C@@H]1O` [FLUDARABINE], the IC50 result (in assay [1]; in assay [2]; on Glycine receptor; in assay [3]; in assay [4]; on Progesterone receptor) was “Not Active” throughout. Also, the IC50 entry at Neutrophil elastase was “Not Active”. The Ki entry in assay [2] and in assay [3] was “Not Active” throughout.
As for `C[C@H](C(=O)O)c1ccc2oc(-c3ccc(F)cc3)nc2c1` [FLUNOXAPROFEN], the IC50 result (in assay [1]; in assay [2]; against Glycine receptor; in assay [3]; in assay [4]; on Progesterone receptor) was “Not Active” in each case. Moreover, the IC50 result on Neutrophil elastase was “Not Active”. Also, the Ki result in assay [2] and in assay [3] was “Not Active” throughout.
Consider `NS(=O)(=O)c1cc(C(=O)O)c(NCc2ccco2)cc1Cl` [FUROSEMIDE], for which the IC50 entry (in assay [1]; in assay [2]; against Glycine receptor; in assay [3]; in assay [4]; at Progesterone receptor) was “Not Active” in each case. The IC50 result on Neutrophil elastase is given as “Not Active”. Moreover, the Ki entry in assay [2] and in assay [3] was “Not Active” in each case.
Turning to `COc1ccc(Cl)cc1C(=O)NCCc1ccc(S(=O)(=O)NC(=O)NC2CCCCC2)cc1` [GLYBURIDE], the IC50 result (in assay [1]; in assay [2]; against Glycine receptor; in assay [3]; in assay [4]; on Progesterone receptor) was “Not Active” throughout. In addition, the IC50 entry against Neutrophil elastase was “Not Active”. Besides, the Ki entry in assay [2] and in assay [3] was “Not Active” each time.
Regarding `O=C(O)CO` [GLYCOLIC ACID], the IC50 entry (in assay [1]; in assay [2]; at Glycine receptor; in assay [3]; in assay [4]; at Progesterone receptor) was “Not Active” throughout. For the same compound, on Neutrophil elastase, the IC50 entry is reported as “Not Active”. Further, the Ki entry in assay [2] and in assay [3] was “Not Active” in each case.
As for `O=C(O)CNCP(=O)(O)O` [GLYPHOSATE], the IC50 result (in assay [1]; in assay [2]; on Glycine receptor; in assay [3]; in assay [4]; on Progesterone receptor) was “Not Active” each time. At Neutrophil elastase, the IC50 result is “Not Active”. The Ki result in assay [2] and in assay [3] was “Not Active” throughout.
What is called pIC50 is −log10 of the IC50, conventionally taken in molar units. By pKi is commonly meant the negative decadic logarithm of the Ki, by convention in mol/L. With `Clc1cc(Cl)c(OCC#CI)cc1Cl` [HALOPROGIN], the pIC50 in assay [1] (read-out: IC50) was 5.40. For the same compound, the pKi in assay [1] (read-out: Ki) was 5.73. Besides, the IC50 result (in assay [2]; on Glycine receptor; in assay [3]; in assay [4]; at Progesterone receptor; on Neutrophil elastase) was “Not Active” throughout. Also, the Ki result in assay [2] and in assay [3] was “Not Active” in each case.
Turning to `COC(=O)C[C@](O)(CCC(C)(C)O)C(=O)O[C@@H]1C(OC)=C[C@]23CCCN2CCc2cc4c(cc2[C@H]13)OCO4` [HARRINGTONINE], the IC50 entry (in assay [1]; in assay [2]; at Glycine receptor; in assay [3]; in assay [4]; at Progesterone receptor) was “Not Active” throughout. The IC50 result against Neutrophil elastase was “Not Active”. Further, the Ki result in assay [2] and in assay [3] was “Not Active” in each case.

(Values after ChEMBL document CHEMBL1909046, “DrugMatrix in vitro pharmacology data”.)
